{"source": "paper PMC7004565", "about": "“Nucleotide inhibition of the pancreatic ATP-sensitive K^+ channel explored with patch-clamp fluorometry” (eLife, 2020)", "key": {"Kir6.2*,C166S-GFP + SUR1 [1]": {"molecular_target": "T1, Kir6.2*,C166S-GFP + SUR1 (Homo sapiens, UniProt Q14654, C166S)", "T1 sequence (Q14654 whole entry C166S)": "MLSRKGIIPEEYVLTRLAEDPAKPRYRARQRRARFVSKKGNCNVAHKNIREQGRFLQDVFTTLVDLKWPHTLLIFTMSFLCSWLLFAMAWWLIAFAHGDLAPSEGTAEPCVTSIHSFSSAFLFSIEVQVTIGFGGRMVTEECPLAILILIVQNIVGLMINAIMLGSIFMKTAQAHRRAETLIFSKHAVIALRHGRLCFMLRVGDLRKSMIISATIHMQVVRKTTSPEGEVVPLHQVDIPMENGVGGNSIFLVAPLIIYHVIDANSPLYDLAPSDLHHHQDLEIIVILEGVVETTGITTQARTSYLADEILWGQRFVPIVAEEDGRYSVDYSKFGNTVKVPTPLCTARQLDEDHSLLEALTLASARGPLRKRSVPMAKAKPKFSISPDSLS", "T1 sequence (Q09428 whole entry partner)": "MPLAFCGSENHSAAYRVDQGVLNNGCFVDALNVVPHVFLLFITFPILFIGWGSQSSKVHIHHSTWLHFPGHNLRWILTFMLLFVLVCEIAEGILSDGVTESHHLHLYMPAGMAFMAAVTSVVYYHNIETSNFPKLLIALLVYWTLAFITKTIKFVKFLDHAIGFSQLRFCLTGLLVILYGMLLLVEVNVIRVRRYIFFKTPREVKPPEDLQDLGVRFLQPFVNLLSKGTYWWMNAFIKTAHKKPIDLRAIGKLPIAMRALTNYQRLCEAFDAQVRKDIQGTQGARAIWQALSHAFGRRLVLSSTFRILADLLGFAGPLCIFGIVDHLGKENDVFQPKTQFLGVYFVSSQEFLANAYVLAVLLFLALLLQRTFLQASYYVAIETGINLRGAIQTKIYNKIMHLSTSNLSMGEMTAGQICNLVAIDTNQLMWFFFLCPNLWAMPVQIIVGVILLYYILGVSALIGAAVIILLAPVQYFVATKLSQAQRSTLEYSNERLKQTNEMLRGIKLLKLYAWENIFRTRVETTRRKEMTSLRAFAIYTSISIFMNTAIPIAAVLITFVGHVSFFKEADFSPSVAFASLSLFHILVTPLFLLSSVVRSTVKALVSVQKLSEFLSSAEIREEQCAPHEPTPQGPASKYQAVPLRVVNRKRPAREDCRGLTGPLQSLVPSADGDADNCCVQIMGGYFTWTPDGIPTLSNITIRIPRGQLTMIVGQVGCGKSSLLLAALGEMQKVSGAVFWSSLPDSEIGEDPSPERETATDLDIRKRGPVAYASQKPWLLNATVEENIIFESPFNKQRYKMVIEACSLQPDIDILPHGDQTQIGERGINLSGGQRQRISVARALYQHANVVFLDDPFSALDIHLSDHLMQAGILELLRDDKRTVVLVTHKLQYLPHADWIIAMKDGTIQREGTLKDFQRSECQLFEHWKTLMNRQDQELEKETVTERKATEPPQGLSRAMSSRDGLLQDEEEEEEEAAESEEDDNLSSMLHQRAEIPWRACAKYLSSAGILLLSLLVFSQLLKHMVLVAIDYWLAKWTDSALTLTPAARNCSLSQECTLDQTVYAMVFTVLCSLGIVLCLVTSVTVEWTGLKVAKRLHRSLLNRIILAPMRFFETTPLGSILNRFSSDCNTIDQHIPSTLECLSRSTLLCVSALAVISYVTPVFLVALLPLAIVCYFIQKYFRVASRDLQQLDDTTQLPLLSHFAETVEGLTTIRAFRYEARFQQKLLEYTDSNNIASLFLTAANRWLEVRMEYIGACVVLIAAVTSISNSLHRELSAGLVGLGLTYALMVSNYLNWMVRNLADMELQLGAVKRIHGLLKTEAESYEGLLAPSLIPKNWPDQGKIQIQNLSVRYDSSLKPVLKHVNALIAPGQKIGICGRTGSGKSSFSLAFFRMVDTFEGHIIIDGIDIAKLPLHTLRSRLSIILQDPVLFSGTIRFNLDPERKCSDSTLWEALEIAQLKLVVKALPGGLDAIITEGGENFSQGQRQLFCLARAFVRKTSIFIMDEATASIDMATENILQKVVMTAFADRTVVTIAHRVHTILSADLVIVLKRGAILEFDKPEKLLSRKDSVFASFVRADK", "experiment": "ANAP fluorescence quenching in excised patches (patch-clamp fluorometry)", "format": "binding", "design": "ANAP labelling is specific and only full-length Kir6.2 is expressed at the cell membrane; expressed in transfected cells; host or cells: HEK-293T", "settings": "excised patches (PCF), Hill fit", "protocol": "Currents were measured as described above.\nANAP bleaching was corrected as for the unroofed binding experiments with Equation 1 (Figure 2—figure supplement 3A). Due to the lower signal-to-noise ratio for PCF compared to the unroofed membranes, we performed experiments from both high-to-low and low-to-high TNP-ATP concentrations to minimise artifacts from our bleaching corrections."}, "Kir6.2*,C166S-GFP + SUR1 [2]": {"molecular_target": "T1, Kir6.2*,C166S-GFP + SUR1", "experiment": "Bayesian MWC-type model fits to combined patch-clamp fluorometry data", "format": "biochemical", "design": "ANAP labelling is specific and only full-length Kir6.2 is expressed at the cell membrane; expressed in transfected cells; host or cells: HEK-293T", "settings": "for Kd: read-out: KA (intrinsic binding affinity to the closed state) (converted)", "excerpt": "Our simultaneous binding and current measurements were well fit with a Monod-Wyman-Changeux (MWC)-type model (Figure 2D,E; [Monod et al., 1965]) which has been previously proposed to explain KATP channel inhibition ([Enkvetchakul and Nichols, 2003]; [Craig et al., 2008]; [Vedovato et al., 2015]). In our MWC-type model, each ligand binding event ( KA ) is independent and each bound ligand favours the closed state by the same factor ( D ). Simultaneous measurement of binding (fluorescence) and gating (current) allowed us to obtain well constrained fits to our model. To obtain free parameter ( L , KA , D ) estimates and verify that each parameter was well and uniquely determined, we employed a Bayesian Markov chain Monte Carlo (MCMC) method previously employed by [Hines et al. (2014)]. Using this approach, we constructed posterior probability distributions for the free parameters of our MWC-type model (Figure 2F, Table 3). […] Our estimate of L was quite low and broadly distributed. We repeated our fits with L fixed to a value consistent with previous single channel measurements (0.8, Popen=0.45; [John et al., 1998]; [Enkvetchakul et al., 2000]; [Ribalet et al., 2006]). This had only a very small effect on our estimates of D and KA (Figure 2—figure supplement 1). The broad distribution of L in our fit may represent current rundown which occurs during our patch-clamp recordings and is expected to affect the open-closed equilibrium.\nIn addition to the full MWC-type model we considered alternate models (Figure 2—figure supplement 2). These included a model in which only the first binding event influences the open-closed equilibrium of the channel (single-binding model; Figure 2—figure supplement 2B, Table 3), and an MWC-style model with an additional parameter C to allow for direct negative cooperativity between binding sites (negative cooperativity model; Figure 2—figure supplement 2C, Table 3). The single-binding model yielded very similar parameter estimates to our full MWC-type model (Figure 2—figure supplement 2D, Table 3). This is a consequence of D being so low that even in the MWC-type model most channels are closed when only a single nucleotide is bound. The cooperative model improved our fits, but not enough to justify the inclusion of an additional free parameter (see Discussion).\nThe MWC-type models considered (Figure 2 and Figure 2—figure supplement 2) were formulated as follows:(3) F/Fmax=KA[TNPATP](1+KA[TNPATP])^3+LDKA[TNPATP](1+DKA[TNPATP])^3/(1+KA[TNPATP])^4+L(1+DKA[TNPATP])^4 (4) open channels/total channels=L(1+DKA[TNPATP])^4/(1+KA[TNPATP])^4+L(1+DKA[TNPATP])^4\nThe first was similar to the MWC-type model, except that the channels close after one molecule of TNP-ATP binding with subsequent binding events having no effect.(7) F/Fmax=LDKA[TNPATP](1+3KA[TNPATP]+3KA2[TNPATP]^2+KA3[TNPATP]^3)+KA[TNPATP](1+KA[TNPATP])^3/L(1+4DKA[TNPATP]+6DKA2[TNPATP]^2+4DKA3[TNPATP]^3+DKA4[TNPATP]^4)+(1+KA[TNPATP])^4 (8) I/Imax=L(1+4DKA[TNPATP]+6DKA2[TNPATP]^2+4DKA3[TNPATP]^3+DKA4[TNPATP]^4)/L(1+4DKA[TNPATP]+6DKA2[TNPATP]^2+4DKA3[TNPATP]^3+DKA4[TNPATP]^4)+(1+KA[TNPATP])^4⋅1+L/L\nThe second alternate model was the same as the full MWC model, but with an additional term C describing binding cooperativity between Kir6.2 subunits.(9) F/Fmax=LDKA[TNPATP](1+3CDKA[TNPATP]+3C^2D^2KA2[TNPATP]^2+C^3D^3KA3[TNPATP]^3)+KA[TNPATP](1+3CKA[TNPATP])+3C^2KA2[TNPATP]^2+C^3KA3[TNPATP]^3)/L(1+4DKA[TNPATP]+6CD^2KA2[TNPATP]^2+4C^2D^3KA3[TNPATP]^3+C^3D^4KA4[TNPATP]^4)+1+4KA[TNPATP]+6CKA2[TNPATP]^2+4C^2KA3[TNPATP]^3+C^3KA4[TNPATP]^4 (10) I/Imax=L(1+4DKA[TNPATP]+6CD^2KA2[TNPATP]^2+4C^2D^3KA3[TNPATP]^3+C^3D^4KA4[TNPATP]^4)/L(1+4DKA[TNPATP]+6CD^2KA2[TNPATP]^2+4C^2D^3KA3[TNPATP]^3+C^3D^4KA4[TNPATP]^4)+1+4KA[TNPATP]+6C^2KA2[TNPATP]^2+4C^2KA3[TNPATP]^3+C^3KA4[TNPATP]^4⋅1+L/L […]"}, "[3]": {"settings": "Full MWC model, median estimate"}, "[4]": {"settings": "Single-site (single-binding) model"}}, "note": "Read-outs that look alike come from different tables or passages of the source.", "data": [{"compound": "Nc1ncnc2c1ncn2[C@@H]1O[C@H](COP(=O)(O)OP(=O)(O)OP(=O)(O)O)[C@H]2OC3(O[C@H]21)C([N+](=O)[O-])=CC(=[N+]([O-])[O-])C=C3[N+](=O)[O-]", "note": "(stereo partly shown) [TNP-ATP, trinitrophenyl-ATP]", "values": [{"measurement": "h (Hill coefficient) fluorescence quenching", "setting": "Kir6.2*,C166S-GFP + SUR1 [1]", "result": 0.84}, {"measurement": "Emax", "setting": "Kir6.2*,C166S-GFP + SUR1 [1]; fraction", "result": 100, "unit": "%"}, {"measurement": "EC50", "setting": "Kir6.2*,C166S-GFP + SUR1 [1]; n = 6", "result": 67.6, "unit": "µM"}, {"measurement": "D (factor by which nucleotide binding favours channel closure)", "setting": "Kir6.2*,C166S-GFP + SUR1 [2]; [3]", "result": 0.84}, {"measurement": "L (unliganded open-closed equilibrium constant)", "setting": "Kir6.2*,C166S-GFP + SUR1 [2]; [3]", "result": 0.29, "unit": "log10"}, {"measurement": "Kd", "setting": "Kir6.2*,C166S-GFP + SUR1 [2]; [3]", "result": 66.1, "unit": "µM"}, {"measurement": "C (binding cooperativity between Kir6.2 subunits)", "setting": "Kir6.2*,C166S-GFP + SUR1 [2]; Negative cooperativity model", "result": 0.52}, {"measurement": "D (factor by which nucleotide binding favours channel closure)", "setting": "Kir6.2*,C166S-GFP + SUR1 [2]; Negative cooperativity model", "result": 0.83}, {"measurement": "L (unliganded open-closed equilibrium constant)", "setting": "Kir6.2*,C166S-GFP + SUR1 [2]; Negative cooperativity model", "result": 0.32, "unit": "log10"}, {"measurement": "Kd", "setting": "Kir6.2*,C166S-GFP + SUR1 [2]; Negative cooperativity model", "result": 37.2, "unit": "µM"}, {"measurement": "D (factor by which nucleotide binding favours channel closure)", "setting": "Kir6.2*,C166S-GFP + SUR1 [2]; [4]", "result": 0.70}, {"measurement": "L (unliganded open-closed equilibrium constant)", "setting": "Kir6.2*,C166S-GFP + SUR1 [2]; [4]", "result": 0.09, "unit": "log10"}, {"measurement": "Kd", "setting": "Kir6.2*,C166S-GFP + SUR1 [2]; [4]", "result": 70.8, "unit": "µM"}]}]}
